Source: the supplement of paper PMC4862054

Columns and labels:
Details in all cases: incubation time: 72 h
BT-474 [1] = experiment: normalised response (% of control), CellTox Green; higher = less cell death (100 = DMSO, 0 = benzethonium chloride kill control)
In short: (§1)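 Each entry is the normalised signal at a single concentration within a series. The series comprised 5 concentrations in 10-fold steps over a compound-specific 10,000-fold range, placed in 384-well plates into which breast cancer cell lines were seeded as 20 µl suspension and incubated 72 h. CellTox Green (485/520 nm) fluorescence and then CellTiter-Glo luminescence were read, with signals normalised per plate to 0.1 % DMSO (100) and a positive kill control (0).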

BT-549 [2] = experiment: as above
In short: as §1

CAL-120 [3] = experiment: as above
In short: as §1

CAL-148 [4] = experiment: as above
In short: as §1

CAL-51 [5] = experiment: as above
In short: as §1

CAL-85-1 [6] = experiment: as above
In short: as §1

DU-4475 [7] = experiment: as above
In short: as §1

HCC1143 [8] = experiment: as above
In short: as §1

HCC1599 [9] = experiment: as above
In short: as §1

HDQ-P1 [10] = experiment: as above
In short: as §1

Hs578T [11] = experiment: as above
In short: as §1

MCF-10A [12] = experiment: as above
In short: as §1

MDA-MB-231 [13] = experiment: as above
In short: as §1

MDA-MB-436 [14] = experiment: as above
In short: as §1

MDA-MB-453 [15] = experiment: as above
In short: as §1

MDA-MB-468 [16] = experiment: as above
In short: as §1

MFM-223 [17] = experiment: as above
In short: as §1

BT-474 [18] = experiment: normalised response (% of control), CellTiter-Glo; higher = more viable cells (100 = DMSO, 0 = benzethonium chloride kill control)
Method: (§2)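 DSRT, 72 h incubation, CellTox Green / CellTiter-Glo readout. Signal is normalised to DMSO and benzethonium chloride controls. Value is the normalised response at the highest dose.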

BT-549 [19] = experiment: as above
Method: as §2

CAL-120 [20] = experiment: as above
Method: as §2

CAL-148 [21] = experiment: as above
Method: as §2

CAL-51 [22] = experiment: as above
Method: as §2

CAL-85-1 [23] = experiment: as above
Method: as §2

DU-4475 [24] = experiment: as above
Method: as §2

HCC1143 [25] = experiment: as above
Method: as §2

HCC1599 [26] = experiment: as above
Method: as §2

HCC1937 [27] = experiment: as above
Method: as §2

HDQ-P1 [28] = experiment: as above
Method: as §2

Hs578T [29] = experiment: as above
Method: as §2

MCF-10A [30] = experiment: as above
Method: as §2

MDA-MB-231 [31] = experiment: as above
Method: as §2

MDA-MB-436 [32] = experiment: as above
Method: as §2

MDA-MB-453 [33] = experiment: as above
Method: as §2

MDA-MB-468 [34] = experiment: as above
Method: as §2

MFM-223 [35] = experiment: as above
Method: as §2

SK-BR-3 [36] = experiment: as above
Method: as §2

HCC1937 [37] = experiment: normalised response (% of control), CellTox Green; higher = less cell death (100 = DMSO, 0 = benzethonium chloride kill control)
In short: as §1

BT-474 [38] = experiment: normalised response (% of control), CellTiter-Glo; higher = more viable cells (100 = DMSO, 0 = benzethonium chloride kill control); remark: listed apart in the source
Method: (§3)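 DSRT, 72 h incubation, CellTox Green / CellTiter-Glo readout. Signal is normalised to DMSO and benzethonium chloride controls. Value is the normalised response at dose 3.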

BT-549 [39] = experiment: as above; remark: listed apart in the source
Method: as §3

CAL-120 [40] = experiment: as above; remark: listed apart in the source
Method: as §3

CAL-148 [41] = experiment: as above; remark: listed apart in the source
Method: as §3

CAL-51 [42] = experiment: as above; remark: listed apart in the source
Method: as §3

CAL-85-1 [43] = experiment: as above; remark: listed apart in the source
Method: as §3

DU-4475 [44] = experiment: as above; remark: listed apart in the source
Method: as §3

HCC1143 [45] = experiment: as above; remark: listed apart in the source
Method: as §3

HCC1599 [46] = experiment: as above; remark: listed apart in the source
Method: as §3

HCC1937 [47] = experiment: as above; remark: listed apart in the source
Method: as §3

HDQ-P1 [48] = experiment: as above; remark: listed apart in the source
Method: as §3

MCF-10A [49] = experiment: as above; remark: listed apart in the source
Method: as §3

MDA-MB-231 [50] = experiment: as above; remark: listed apart in the source
Method: as §3

MDA-MB-436 [51] = experiment: as above; remark: listed apart in the source
Method: as §3

MDA-MB-453 [52] = experiment: as above; remark: listed apart in the source
Method: as §3

MDA-MB-468 [53] = experiment: as above; remark: listed apart in the source
Method: as §3

MFM-223 [54] = experiment: as above; remark: listed apart in the source
Method: as §3

SK-BR-3 [55] = experiment: as above; remark: listed apart in the source
Method: as §3

Structure (SMILES)	normalised response (BT-474 [1])	normalised response (BT-549 [2])	normalised response (CAL-120 [3])	normalised response (CAL-148 [4])	normalised response (CAL-51 [5])	normalised response (CAL-85-1 [6])	normalised response (DU-4475 [7])	normalised response (HCC1143 [8])	normalised response (HCC1599 [9])	normalised response (HDQ-P1 [10])	normalised response (Hs578T [11])	normalised response (MCF-10A [12])	normalised response (MDA-MB-231 [13])	normalised response (MDA-MB-453 [15])	normalised response (MDA-MB-468 [16])	normalised response (MFM-223 [17])	normalised response (BT-474 [18])	normalised response (BT-549 [19])	normalised response (CAL-120 [20])	normalised response (CAL-148 [21])	also measured
Nc1nc(OCc2cc(Br)cs2)c2[nH]cnc2n1 [Lomeguatrib] (10000 nM)	95.9%	96.6%	104%	69.2%	89.2%	114%	97.9%	98%	99.2%	104%	108%	75.2%	112%	92.8%	161%	98.5%	98.9%	93.5%	101%	101%	normalised response (MDA-MB-436 [14]): 94.1%; normalised response (CAL-51 [22]): 67.2%; normalised response (CAL-85-1 [23]): 97%; normalised response (DU-4475 [24]): 102%; normalised response (HCC1143 [25]): 94.5%; normalised response (HCC1599 [26]): 106%; normalised response (HCC1937 [27]): 103%; normalised response (HDQ-P1 [28]): 96.5%; normalised response (Hs578T [29]): 98.7%; normalised response (MCF-10A [30]): 97.4%; normalised response (MDA-MB-231 [31]): 98.5%; normalised response (MDA-MB-436 [32]): 90.6%; normalised response (MDA-MB-453 [33]): 91.3%; normalised response (MDA-MB-468 [34]): 87.1%; normalised response (MFM-223 [35]): 91.8%; normalised response (SK-BR-3 [36]): 93.9%
CNNCc1ccc(C(=O)NC(C)C)cc1 [Procarbazine] (10000 nM)	103%	94%	111%	93%	110%	72%	96.2%	115%	98.3%	99.9%	108%	115%	99%	60.5%	–	94.5%	98%	101%	106%	107%	normalised response (MDA-MB-436 [14]): 81.7%; normalised response (CAL-51 [22]): 96.3%; normalised response (CAL-85-1 [23]): 99.3%; normalised response (DU-4475 [24]): 102%; normalised response (HCC1143 [25]): 113%; normalised response (HCC1599 [26]): 96.8%; normalised response (HCC1937 [27]): 103%; normalised response (HDQ-P1 [28]): 104%; normalised response (Hs578T [29]): 105%; normalised response (MCF-10A [30]): 109%; normalised response (MDA-MB-231 [31]): 103%; normalised response (MDA-MB-436 [32]): 103%; normalised response (MDA-MB-453 [33]): 102%; normalised response (MDA-MB-468 [34]): 99.4%; normalised response (MFM-223 [35]): 108%; normalised response (SK-BR-3 [36]): 109%
Cn1c(=O)n(-c2ccc(C(C)(C)C#N)cc2)c2c3cc(-c4cnc5ccccc5c4)ccc3ncc21 [Dactolisib] (10 nM)	101%	110%	98.7%	103%	113%	101%	104%	55.5%	115%	116%	116%	108%	120%	108%	130%	104%	–	–	–	–	normalised response (HCC1937 [37]): 122%; normalised response (MDA-MB-436 [14]): 102%; normalised response (BT-474 [38]): 80.5%; normalised response (BT-549 [39]): 61.5%; normalised response (CAL-120 [40]): 62.1%; normalised response (CAL-148 [41]): 88.5%; normalised response (CAL-51 [42]): 68.4%; normalised response (CAL-85-1 [43]): 62.9%; normalised response (DU-4475 [44]): 96.3%; normalised response (HCC1143 [45]): 78%; normalised response (HCC1599 [46]): 97.5%; normalised response (HCC1937 [47]): 85.5%; normalised response (HDQ-P1 [48]): 80.1%; normalised response (MCF-10A [49]): 99.8%; normalised response (MDA-MB-231 [50]): 80.3%; normalised response (MDA-MB-436 [51]): 65.9%; normalised response (MDA-MB-453 [52]): 75.9%; normalised response (MDA-MB-468 [53]): 84.3%; normalised response (MFM-223 [54]): 83.8%; normalised response (SK-BR-3 [55]): 73.6%
CN1CCN(CCOc2cc(OC3CCOCC3)c3c(Nc4c(Cl)ccc5c4OCO5)ncnc3c2)CC1 [Saracatinib] (10000 nM)	42%	86.2%	94.5%	68.4%	58%	29.9%	95.5%	96.4%	76.6%	68.9%	59.7%	87.1%	51.3%	79%	125%	90.4%	55%	57.8%	66.3%	75.2%	normalised response (HCC1937 [37]): 81.7%; normalised response (CAL-51 [22]): 59.8%; normalised response (CAL-85-1 [23]): 27.9%; normalised response (DU-4475 [24]): 106%; normalised response (HCC1143 [25]): 67.1%; normalised response (HCC1599 [26]): 19.4%; normalised response (HCC1937 [27]): 56%; normalised response (HDQ-P1 [28]): 34.6%; normalised response (Hs578T [29]): 64.8%; normalised response (MCF-10A [30]): 21.4%; normalised response (MDA-MB-231 [31]): 47.5%; normalised response (MDA-MB-436 [32]): 83%; normalised response (MDA-MB-453 [33]): 63.1%; normalised response (MDA-MB-468 [34]): 67.5%; normalised response (MFM-223 [35]): 64.9%; normalised response (SK-BR-3 [36]): 46.9%
c1ccc([C@H]2CN3CCSC3=N2)cc1 [Levamisole] (10000 nM)	101%	95.8%	98.4%	53.5%	113%	79.1%	104%	106%	92.5%	72.4%	72%	67.3%	–	71.4%	110%	95.2%	102%	96.5%	112%	106%	normalised response (HCC1937 [37]): 82.5%; normalised response (CAL-51 [22]): 119%; normalised response (CAL-85-1 [23]): 94%; normalised response (DU-4475 [24]): 98.9%; normalised response (HCC1143 [25]): 99.3%; normalised response (HCC1599 [26]): 114%; normalised response (HCC1937 [27]): 100%; normalised response (HDQ-P1 [28]): 104%; normalised response (Hs578T [29]): 100%; normalised response (MCF-10A [30]): 110%; normalised response (MDA-MB-231 [31]): 104%; normalised response (MDA-MB-436 [32]): 108%; normalised response (MDA-MB-453 [33]): 106%; normalised response (MDA-MB-468 [34]): 104%; normalised response (MFM-223 [35]): 108%; normalised response (SK-BR-3 [36]): 110%
